For the assay, the system named is IFNα-induced STAT phosphorylation (pSTAT5) in human whole blood. The experiment in a line: IFNα-Induced STAT Phosphorylation in Human Whole Blood. The class given is cell-based. As to conditions: 1 h incubation with compound, 1000 U/mL recombinant human IFNα A/D for 15 min, pSTAT5 in CD3 positive population, read-out: IFNα-Induced Stat Phosph. (IC50).

The record followed here is US12365667B2, “Sulfone pyridine alkyl amide-substituted heteroaryl compounds” (BRISTOL-MYERS SQUIBB COMPANY, priority 2017, dated 2025).

Structures are written as SMILES. Read-outs that look alike come from different tables or passages of the source.

In the case of `COc1ccc(Nc2cc(Nc3ncccc3S(C)(=O)=O)c(C(N)=O)nn2)nn1` [Example 213, 6-((6-methoxypyridazin-3-yl)amino)-4-((3-(methylsulfonyl)pyridin-2-yl)amino)pyridazine-3-carboxamide], the IC50 (Homo sapiens) was 114 nM.
Still for that read-out and setting: the figure for `[2H]C([2H])([2H])NC(=O)c1cnc(Nc2ccc(F)cn2)cc1Nc1ncccc1S(C)(=O)=O` [Example 215, 6-((5-fluoropyridin-2-yl)amino)-N-(methyl-d3)-4-((3-(methylsulfonyl)pyridin-2-yl)amino)nicotinamide] is 21 nM.
Regarding `CNC(=O)c1cnc(Nc2ccccn2)cc1Nc1ncccc1S(C)(=O)=O` [Example 216], the IC50 is 28 nM.
For the molecule `CNC(=O)c1cnc(Nc2ccc(Cl)cn2)cc1Nc1ncccc1S(C)(=O)=O` [Example 217], the IC50 is 52 nM.
Consider `CNC(=O)c1cnc(Nc2cc(C)c(F)cn2)cc1Nc1ncccc1S(C)(=O)=O` [Example 218], for which the IC50 stood at 34 nM.
Regarding `CNC(=O)c1cnc(Nc2ccc(C(F)(F)F)cn2)cc1Nc1ncccc1S(C)(=O)=O` [Example 219], the IC50 worked out at 24 nM.
As for `CNC(=O)c1cnc(Nc2ccc(C#N)cn2)cc1Nc1ncccc1S(C)(=O)=O` [Example 220], the IC50 was 15 nM.
The same measure, in the same setting: the figure for `CNC(=O)c1cnc(Nc2cc(C#N)ccn2)cc1Nc1ncccc1S(C)(=O)=O` [Example 221] is 13 nM.
On the same count and under the same terms, in the case of `CNC(=O)c1cnc(Nc2cnc(C3CC3)cn2)cc1Nc1ncccc1S(C)(=O)=O` [Example 222] it was 59 nM.
Regarding `CNC(=O)c1cnc(Nc2ccc(C(F)(F)F)nn2)cc1Nc1ncccc1S(C)(=O)=O` [Example 223], the IC50 worked out at 94 nM.
Same read-out and setting: in the case of `CNC(=O)c1cnc(Nc2cccnn2)cc1Nc1ncccc1S(C)(=O)=O` [Example 224] it was 44 nM.
`CNC(=O)c1cnc(Nc2cc(C(F)(F)F)ncn2)cc1Nc1ncccc1S(C)(=O)=O` [Example 225]: the IC50 was 164 nM.
The same measure, in the same setting: the figure for `CNC(=O)c1cnc(Nc2cc(C3CC3)nc(C3CC3)n2)cc1Nc1ncccc1S(C)(=O)=O` [Example 228] is 181 nM; for `CNC(=O)c1cnc(Nc2cc(C3CC3)nc(C)n2)cc1Nc1ncccc1S(C)(=O)=O` [Example 229] it is 47 nM.
On the same count and under the same terms, in the case of `CNC(=O)c1cnc(Nc2cc(C#N)c(C)cn2)cc1Nc1ncccc1S(C)(=O)=O` [Example 230] it was 22 nM; in that of `CNC(=O)c1cnc(Nc2cc(C(F)(F)F)c(C#N)cn2)cc1Nc1ncccc1S(C)(=O)=O` [Example 231], 360 nM.
As to `CNC(=O)c1cnc(Nc2cc(C#N)c(C(F)(F)F)cn2)cc1Nc1ncccc1S(C)(=O)=O` [Example 232], the IC50 came to 131 nM.
`CNC(=O)c1cnc(Nc2cc(C)c(C#N)cn2)cc1Nc1ncccc1S(C)(=O)=O` [Example 233]: the IC50 was determined as 61 nM.
On to `[2H]C([2H])([2H])NC(=O)c1cnc(Nc2ccc(-c3ccccc3)cn2)cc1Nc1ncccc1S(C)(=O)=O` [Example 234, N-(methyl-d3)-4-((3-(methylsulfonyl)pyridin-2-yl)amino)-6-((5-phenylpyridin-2-yl)amino)nicotinamide], for which the IC50 (Homo sapiens) was 636 nM.
Consider `CCC(=O)Nc1cc(Nc2ncccc2S(C)(=O)=O)c(C(=O)NC)cn1` [Example 235], for which the IC50 worked out at 144 nM.
Still for that read-out and setting: the figure for `CNC(=O)c1cnc(NC(=O)C2CC2)cc1Nc1ncccc1S(C)(=O)=O` [Example 236] is 13 nM; for `CNC(=O)c1cnc(NC(=O)OC)cc1Nc1ncccc1S(C)(=O)=O` [Example 237] it is 1080 nM; for `CNC(=O)c1cnc(Nc2cccc(-c3ccccc3)n2)cc1Nc1ncccc1S(C)(=O)=O` [Example 238] it is 2450 nM.
On the same count and under the same terms, the figure for `CNC(=O)c1cnc(NC(=O)C2CCC2)cc1Nc1ncccc1S(C)(=O)=O` [Example 239] is 288 nM.
The same measure, in the same setting: the figure for `CNC(=O)c1cnc(Nc2ccc(OC(F)(F)F)cn2)cc1Nc1ncccc1S(C)(=O)=O` [Example 240] is 115 nM; for `CCC(=O)Nc1cc(Nc2nc(C)ccc2S(C)(=O)=O)c(C(=O)NC)cn1` [Example 241] it is 203 nM; for `CNC(=O)c1cnc(NC(=O)C2CC2)cc1Nc1nc(C)ccc1S(C)(=O)=O` [Example 242] it is 50 nM.
Turning to `CNC(=O)c1nnc(Nc2ccc(C(C)(C)C)nn2)cc1Nc1ncccc1S(C)(=O)=O` [Example 245, 6-((6-(tert-butyl)pyridazinyl-3-yl)amino)-N-(methyl-d3)-4-((3-(methylsulfonyl)pyridin-2-yl)amino)pyridazine-3-carboxamide], the IC50 was found to be 10 nM.
In the case of `[2H]C([2H])([2H])NC(=O)c1nnc(Nc2ccc(OC(F)F)nn2)cc1Nc1ncccc1S(C)(=O)=O` [Example 246, 6-((6-(difluoromethoxy)pyridazin-3-yl)amino)-N-(methyl-d3)-4-((3-(methylsulfonyl)pyridin-2-yl)amino)pyridazine-3-carboxamide], for the setting “Homo sapiens”, the IC50 worked out at 34 nM.
On the same count and under the same terms, in the case of `[2H]C([2H])([2H])NC(=O)c1nnc(Nc2ccc(C(C)C)nn2)cc1Nc1ncccc1S(C)(=O)=O` [Example 247, 6-((6-isopropylpyridazin-3-yl)amino)-N-(methyl-d3)-4-((3-(methylsulfonyl)pyridin-2-yl)amino)pyridazine-3-carboxamide] it was 6 nM.
As for `[2H]C([2H])([2H])NC(=O)c1nnc(Nc2cccnn2)cc1Nc1ncccc1S(C)(=O)=O` [Example 251, N-(methyl-d3)-4-((3-(methylsulfonyl)pyridin-2-yl)amino)-6-(pyridazin-3-ylamino)pyridazine-3-carboxamide], for the setting “Homo sapiens”, the IC50 came to 7 nM.
In the case of `[2H]C([2H])([2H])NC(=O)c1nnc(NC(=O)[C@@H]2CC23CC3)cc1Nc1ncccc1S(C)(=O)=O` [Example 252, (R)—N-(methyl-d3)-4-((3-(methylsulfonyl)pyridin-2-yl)amino)-6-(spiro[2.2]pentane-1-carboxamido)pyridazine-3-carboxamide], the IC50 (Homo sapiens) was found to be 53 nM.
For `[2H]C([2H])([2H])NC(=O)c1nnc(NC(=O)[C@H]2CC23CC3)cc1Nc1ncccc1S(C)(=O)=O` [Example 253, (S)—N-(methyl-d3)-4-((3-(methylsulfonyl)pyridin-2-yl)amino)-6-(spiro[2.2]pentane-1-carboxamido)pyridazine-3-carboxamide], the IC50 is 47 nM.
Still for that read-out and setting: in the case of `CNC(=O)c1nnc(Nc2cc(C)nc(C)n2)cc1Nc1ncccc1[S+](C)[O-]` (stereo not drawn) [Example 254] it was 186 nM; in that of `CNC(=O)c1nnc(Nc2ccc(OC)nn2)cc1Nc1ncccc1[S+](C)[O-]` (stereo not drawn) [Example 255], 466 nM; in that of `CNC(=O)c1nnc(Nc2ccn(C)n2)cc1Nc1ncccc1[S+](C)[O-]` (stereo not drawn) [Example 256], 744 nM.
Consider `CNC(=O)c1nnc(Nc2ccc(C(C)(C)NC3COC3)cn2)cc1Nc1ncccc1S(C)(=O)=O` [compound 170], for which the IC50 came to 11 nM.
Still for that read-out and setting: the figure for `CCNC(=O)c1nnc(Nc2cc(C3CC3)nc(C)n2)cc1Nc1ncccc1S(C)(=O)=O` [compound 212] is 1080 nM; for `Cn1ccc(Nc2cc(Nc3ncccc3S(C)(=O)=O)c(C(N)=O)nn2)n1` [compound 214] it is 46 nM.
